Patent US20090075318A1, “USING PHOTO-RESPONSIVE SURFACTANTS TO REVERSIBLY CONTROL PROTEIN AGGREGATION WITH LIGHT ILLUMINATION” (University of Southern California, priority 2007, published 2009)
Where two headings read alike, the source gives them in different places.

Tests used:
[1] = cited from earlier work
[2] = target: T1, α-chymotrypsin (Bos taurus, UniProt P00766); assay: FT-IR secondary structure of α-Ch/azoTAB mixtures; parameters: species or system bovine; conditions: addition of trans azoTAB to pure α-Ch, and UV exposure of α-Ch/azoTAB
T1 construct: α-Ch results from the removal of two dipeptides at positions 14-15 and 147-148 in chymotrypsinogen; purchased Sigma C-4129 (lot # 105K7670); host or cells: bovine pancreas
Protocol: Infrared spectra were measured with a Genesis II FT-IR spectrometer (Mattson Instruments). Solutions were loaded in a demountable liquid cell equipped with a circulating water jacket (T=20° C.) between a pair of CaF2 windows using a 50 μm Teflon spacer. A liquid light guide (Oriel, model no. 77557) was used to directly illuminate the sample with UV or visible light for 2 hours prior to and during data collection, as previously described (9). The sample chamber was continuously purged with dry air to eliminate the influence of water vapor. For each spectrum, a 500-scan interferogram was collected with a 2 cm^−1 resolution. The relatively sharp surfactant peaks at ˜1600 cm^−1 were removed by subtracting the spectra measured for a pure surfactant solution under otherwise identical conditions, resulting in corrected spectra that were flat in the region between 2000 and 1750 cm^−1. Fourier self-deconvolution (FSD) was applied to spectra to resolve the overlapping bands in the Amide I region using a band-narrowing factor k=2.0 and a full width at half height of 12.6 cm^−1. Second derivative spectra were obtained with the Savitsky-Golay function for a 3rd order polynomial, using a 13 data point window. […] Difference spectra obtained for pure α-chymotrypsin solutions without surfactant shown no significant absorbance changes (<1% throughout the amide I region).

[3] = target: T1, α-chymotrypsin; assay: SANS of α-chymotrypsin/azoTAB solutions (Guinier, PDDF, shape reconstruction); parameters: species or system bovine
Protocol: Small-angle neutron scattering experiments were performed on the 30-m NG3 SANS instruments at NIST. (24) A neutron wavelength of λ=6 Å and a detector offset of 25 cm with two sample-detector distances of 1.33 and 7.0 m were utilized to achieve a Q range of 0.0048-0.46 Å^−1. The net intensities were corrected for the background and empty cell (pure D2O), accounting for the detector efficiency using the scattering from an isotropic scatterer (Plexiglas), and converted to an absolute differential cross section per unit sample volume (in units of cm^−1) using an attenuated empty beam. The data were then corrected for incoherent scattering by subtracting a constant background. The shape-reconstruction algorithm GA_STUCT (11) was used to generate solution conformations, similar to previous studies (10, 11). Beginning with an initial guess of randomly-distributed scattering centers, the program rearranges the position of the scattering centers to best fit the experimental scattering data.
The weight-average molecular weight (Mw) of each sample was calculated from the equation
where ρS and ρP are the scattering length densities of the solvent (6.36×10^10 cm^−2) and protein (3.23×10^10 cm^−2), respectively, c is the protein concentration (11.6 mg/mL at pH 3 and 11.4 mg/mL at pH 7), and υ is the protein specific volume (0.734 cm^3/g). (25) I(0)-values were determined from Guinier plots (25) using I(Q)=I(0)exp(−Q^2Rg^2/3), where Rg is the radius of gyration. Guinier plots, generally valid for QRg<1.3, can be influenced by solution structuring due to intermolecular interactions between charged proteins, which becomes increasingly important as Q decreases below 1.5/R (10) (or <0.05 Å^−1 using an α-Ch radius ˜30 Å). Thus, pair distance distribution functions were calculated from the SANS data using the program GNOM (26) according to the equation
where P(r) is related to the probability of two scattering centers (nuclei for SANS) being a distance r+dr apart, and Dmax is the maximum distance between scattering centers within the protein or protein oligomer. I(0)-values were then obtained from the PDDFs through I(0)=4π∫0^D^maxP(r)dr, which has the advantage of utilizing the entire Q-range to determine I(O), as opposed to just the low-Q values as in Guinier analysis (27).

[4] = target: T1, α-chymotrypsin; assay: Congo red staining, optical microscopy of α-Ch/azoTAB solution; parameters: species or system bovine; conditions: α-Ch/azoTAB solution aged for five days
Protocol: Optical microscopy was performed on an Olympus IX71 inverted fluorescence microscope equipped using a 50× lens (Olympus, model SLCPlanFl) and a U-N41027 CAL CRIM C58158 filter cube (Chroma, model 058158). Images were recorded with a Hamamatsu digital CCD camera (model C4742-95). Aliquots (5-10 μL) of the protein-surfactant solution were deposited onto glass slides and dyed with an equal volume of a 400 μM Congo red aqueous solution.

[5] = target: T1, α-chymotrypsin; assay: TEM of α-Ch/azoTAB solutions; parameters: species or system bovine; conditions: two weeks (fresh solution) or approx. one year (SANS solution, pH 3, 4.2 mM azoTAB)
Protocol: Transmission electron microscopy was performed on a Philips EM420 TEM operating at 80 kV. A drop of protein solution was placed on a carbon-coated grid for 10 seconds and then blotted with filter paper, followed by repeating this procedure with a second drop. The grid was then placed in a freshly made 1 wt % uranyl acetate solution for 30 s.

[6] = target: T2, chymotrypsinogen-A (Bos taurus, UniProt P00766); assay: SAXS of chymotrypsinogen-A/azoTAB solutions; parameters: species or system bovine
T2 construct: Chymotrypsinogen is the zymogen of α-chymotrypsin; purchased Worthington LS005630; host or cells: bovine pancreas
Protocol: The small-angle X-ray scattering data were measured using the X21 beamline at the National Synchrotron Light Source at the Brookhaven National Laboratory. (28) The X-ray wavelength was set to 1.24 Å with a pair of Si(111) monochromator crystals. The sample-to-detector distance was calibrated to be 1.69 m using a silver behenate standard. To avoid radiation damage, solutions were continuously passed at a flow rate of 60 μL/min through a 1-mm glass capillary housed within an aluminum block containing Plexiglas observation windows. (28) The net intensities were corrected for the background and solvent scattering as well as sample transmission, and were put on an absolute scale by comparison with a calibration standard (10 mg/mL BSA (10)).

## CCc1ccc(/N=N/c2ccc(OCC[N+](C)(C)C)cc2)cc1 [azoTAB, azobenzene-trimethylammonium bromide surfactant]
[1]; 350-nm UV light
  isomer ratio: 90/10
[1]; in the dark, about 24 hours
  trans isomer: ~100%
[1]; visible light, 434 nm
  isomer ratio: 75/25
[1]; visible light
  cis→trans isomerization kinetics: within minutes
[2]
  FT-IR change on association: increase in peaks at 1612 and 1685 cm^−1
[3]; Q^2 ~0.01-0.03 Å^-2, α-Ch/azoTAB solutions, pH 3 and pH 7, visible and UV
  Rg from second Guinier slope (monomer): 17.0-18.2 Å
[3]; UV light (cis azoTAB)
  type of protein self-association: monomer-dodecamer equilibrium
[3]; UV light, dodecamer
  Dmax of oligomer (PDDF): ~160 Å
  most probable dimension (PDDF peak): 40-50 Å
[3]; UV light, SANS and SAXS data
  effective oligomer size n^eff reached with increasing surfactant concentration: 12
[3]; hexamer or dodecamer, compared to monomer Rg
  scaling exponent of Rg^n with oligomer Mw: 0.42±0.03
[3]; monomer Rg, Table 1
  increase in Rg with the addition of azoTAB: 7%
[3]; visible light (trans azoTAB)
  type of protein self-association: monomer-hexamer equilibrium
[3]; visible light, hexamer
  Dmax of oligomer (PDDF): ~120 Å
[4]
  Congo red staining result: characteristic Congo red fluorescence as well as “apple green” birefringence
[5]
  fibril diameter: ca. 10 nm
[6]; 24 mM azoTAB, visible light, 10.0 mg/mL protein
  Rg of chymotrypsinogen (Guinier): 19.7 Å
[6]; UV light, 19 mM and 24 mM azoTAB
  increase in I(0) relative to the monomer data: 12 fold
[6]; re-exposure to 434-nm visible light
  time for complete visible-light induced dissociation of UV-equilibrated samples: several hours
[6]; visible light
  I(0): 0.2 to 0.25 cm⁻¹
